Source: article PMC9402538, “Rational design of a sensitivity-enhanced tracer for discovering efficient APC–Asef inhibitors” (Nature Communications, 2022)
Where a SMILES comes first, the peptide text is derived from it. The star is where a group is joined. Bz = O=C(c1ccccc1)*

Target: T1, APC (303–739) (Homo sapiens, UniProt P25054)
T1 sequence (P25054 303-739): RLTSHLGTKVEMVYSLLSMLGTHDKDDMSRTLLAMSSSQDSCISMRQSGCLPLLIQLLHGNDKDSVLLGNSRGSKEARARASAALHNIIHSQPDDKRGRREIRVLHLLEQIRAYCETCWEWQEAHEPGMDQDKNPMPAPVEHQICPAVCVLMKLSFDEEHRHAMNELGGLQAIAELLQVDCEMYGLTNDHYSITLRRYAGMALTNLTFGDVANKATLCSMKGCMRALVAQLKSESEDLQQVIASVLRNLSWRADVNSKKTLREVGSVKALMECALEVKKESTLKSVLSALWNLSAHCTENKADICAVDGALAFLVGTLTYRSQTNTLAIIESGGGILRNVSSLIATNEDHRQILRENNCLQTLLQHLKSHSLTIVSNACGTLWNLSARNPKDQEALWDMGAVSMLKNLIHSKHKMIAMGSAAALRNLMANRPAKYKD
Test: FP competitive assay using tracer 7
Type: binding
Conditions: for IC50: Table 3 source data
How it was run: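 Peptide dilutions were first incubated 1 h at room temperature with APC (303–739) in HEPES pH 7.5 buffer containing 300 mM NaCl, EDTA and DTT. Added FITC tracer 7 (400 nM stock) displaced over a further 1.5 h before polarization reading. IC50 values came from nonlinear regression fits of triplicate data.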

CC(C)C[C@H](NC(=O)[C@H](CO)NC(=O)[C@H](CCC(=O)O)NC(=O)CNC(=O)[C@H](C)NC(=O)c1ccccc1)C(=O)N[C@@H](Cc1ccc(O)cc1)C(=O)N[C@@H](CCC(=O)O)C(N)=O [MAI-511] (Bz-AGESLYE-NH2)
inhibition at 0.0002 µM (Conc. 0.0002 μM, individual repeats, Fig3b): 1.5%
inhibition at 0.0005 µM (Conc. 0.0005 μM, individual repeats, Fig3b): 1.2%
inhibition at 0.001 µM (Conc. 0.001 μM, individual repeats, Fig3b): 1.9%
inhibition at 0.002 µM (Conc. 0.002 μM, individual repeats, Fig3b): 1.5%
inhibition at 0.0024 µM (Conc. 0.0024 μM, individual repeats, Fig3b): 1.1%
inhibition at 0.0039 µM (Conc. 0.0039 μM, individual repeats, Fig3b): 2.5%
inhibition at 0.0049 µM (Conc. 0.0049 μM, individual repeats, Fig3b): 1.1%
inhibition at 0.006 µM (Conc. 0.006 μM, individual repeats, Fig3b): 4.7%
inhibition at 0.0078 µM (Conc. 0.0078 μM, individual repeats, Fig3b): 5.3%
inhibition at 0.0098 µM (Conc. 0.0098 μM, individual repeats, Fig3b): 6.1%
inhibition at 0.012 µM (Conc. 0.012 μM, individual repeats, Fig3b): 7.9%
inhibition at 0.0156 µM (Conc. 0.0156 μM, individual repeats, Fig3b): 8.5%
inhibition at 0.0195 µM (Conc. 0.0195 μM, individual repeats, Fig3b): 11.3%
inhibition at 0.024 µM (Conc. 0.024 μM, individual repeats, Fig3b): 16.8%
inhibition at 0.0313 µM (Conc. 0.0313 μM, individual repeats, Fig3b): 22.7%
inhibition at 0.0391 µM (Conc. 0.0391 μM, individual repeats, Fig3b): 22.5%
inhibition at 0.049 µM (Conc. 0.049 μM, individual repeats, Fig3b): 31.3%
inhibition at 0.0625 µM (Conc. 0.0625 μM, individual repeats, Fig3b): 39%
inhibition at 0.0781 µM (Conc. 0.0781 μM, individual repeats, Fig3b): 39.5%
inhibition at 0.098 µM (Conc. 0.098 μM, individual repeats, Fig3b): 49%
inhibition at 0.125 µM (Conc. 0.125 μM, individual repeats, Fig3b): 56.2%
inhibition at 0.1563 µM (Conc. 0.1563 μM, individual repeats, Fig3b): 58.3%
inhibition at 0.195 µM (Conc. 0.195 μM, individual repeats, Fig3b): 67.3%
inhibition at 0.25 µM (Conc. 0.25 μM, individual repeats, Fig3b): 72.5%
inhibition at 0.3125 µM (Conc. 0.3125 μM, individual repeats, Fig3b): 72.1%
inhibition at 0.391 µM (Conc. 0.391 μM, individual repeats, Fig3b): 80.1%
inhibition at 0.5 µM (Conc. 0.5 μM, individual repeats, Fig3b): 83.2%
inhibition at 0.625 µM (Conc. 0.625 μM, individual repeats, Fig3b): 82.5%
inhibition at 0.781 µM (Conc. 0.781 μM, individual repeats, Fig3b): 86.3%
inhibition at 1 µM (Conc. 1 μM, individual repeats, Fig3b): 90.6%
inhibition at 1.25 µM (Conc. 1.25 μM, individual repeats, Fig3b): 89.5%
inhibition at 1.563 µM (Conc. 1.563 μM, individual repeats, Fig3b): 91.5%
inhibition at 2 µM (Conc. 2 μM, individual repeats, Fig3b): 95.4%
inhibition at 2.5 µM (Conc. 2.5 μM, individual repeats, Fig3b): 93.6%
inhibition at 3.125 µM (Conc. 3.125 μM, individual repeats, Fig3b): 93.5%
inhibition at 5 µM (Conc. 5 μM, individual repeats, Fig3b): 95.7%
inhibition at 6.25 µM (Conc. 6.25 μM, individual repeats, Fig3b): 94.1%
inhibition at 10 µM (Conc. 10 μM, individual repeats, Fig3b): 96.6%
inhibition at 12.5 µM (Conc. 12.5 μM, individual repeats, Fig3b): 95%
inhibition at 20 µM (Conc. 20 μM, individual repeats, Fig3b): 97.1%
inhibition at 25 µM (Conc. 25 μM, individual repeats, Fig3b): 95.6%
inhibition at 50 µM (Conc. 50 μM, individual repeats, Fig3b): 94.9%
IC50 (IC50(μM) Repeat 1, Repeat 1): 0.0848 µM
IC50 (IC50(μM) Repeat 2, Repeat 2): 0.102 µM
IC50 (IC50(μM) Repeat 3, Repeat 3): 0.108 µM
IC50 (IC50(μM) mean, mean of 3 repeats): 0.0984 µM
mean (FP signal, FigS5) (Repeat 1, Conc. 0.0024 μM): 300.7
mean (FP signal, FigS5) (Repeat 1, Conc. 0.0049 μM): 300.5
mean (FP signal, FigS5) (Repeat 1, Conc. 0.0098 μM): 288
mean (FP signal, FigS5) (Repeat 1, Conc. 0.0195 μM): 274.7
mean (FP signal, FigS5) (Repeat 1, Conc. 0.0391 μM): 246.3
mean (FP signal, FigS5) (Repeat 1, Conc. 0.0781 μM): 203.3
mean (FP signal, FigS5) (Repeat 1, Conc. 0.1563 μM): 155.7
mean (FP signal, FigS5) (Repeat 1, Conc. 0.3125 μM): 120.7
mean (FP signal, FigS5) (Repeat 1, Conc. 0.625 μM): 94.3
mean (FP signal, FigS5) (Repeat 1, Conc. 1.25 μM): 76.7
mean (FP signal, FigS5) (Repeat 1, Conc. 2.5 μM): 66.3
mean (FP signal, FigS5) (Repeat 1, Conc. 5 μM): 61
mean (FP signal, FigS5) (Repeat 1, Conc. 10 μM): 58.7
mean (FP signal, FigS5) (Repeat 1, Conc. 20 μM): 57.3
mean (FP signal, FigS5) (Repeat 2, Conc. 0.0002 μM): 300.7
mean (FP signal, FigS5) (Repeat 2, Conc. 0.0005 μM): 301.3
mean (FP signal, FigS5) (Repeat 2, Conc. 0.001 μM): 299.7
mean (FP signal, FigS5) (Repeat 2, Conc. 0.002 μM): 300.7
mean (FP signal, FigS5) (Repeat 2, Conc. 0.0039 μM): 298
mean (FP signal, FigS5) (Repeat 2, Conc. 0.0078 μM): 291
mean (FP signal, FigS5) (Repeat 2, Conc. 0.0156 μM): 283
mean (FP signal, FigS5) (Repeat 2, Conc. 0.0313 μM): 247.3
mean (FP signal, FigS5) (Repeat 2, Conc. 0.0625 μM): 206.3
mean (FP signal, FigS5) (Repeat 2, Conc. 0.125 μM): 163
mean (FP signal, FigS5) (Repeat 2, Conc. 0.25 μM): 122
mean (FP signal, FigS5) (Repeat 2, Conc. 0.5 μM): 95.3
mean (FP signal, FigS5) (Repeat 2, Conc. 1 μM): 76.7
mean (FP signal, FigS5) (Repeat 2, Conc. 2 μM): 64.7
mean (FP signal, FigS5) (Repeat 3, Conc. 0.006 μM): 301.3
mean (FP signal, FigS5) (Repeat 3, Conc. 0.012 μM): 293
mean (FP signal, FigS5) (Repeat 3, Conc. 0.024 μM): 270
mean (FP signal, FigS5) (Repeat 3, Conc. 0.049 μM): 232.3
mean (FP signal, FigS5) (Repeat 3, Conc. 0.098 μM): 186.3
mean (FP signal, FigS5) (Repeat 3, Conc. 0.195 μM): 138.7
mean (FP signal, FigS5) (Repeat 3, Conc. 0.391 μM): 105.3
mean (FP signal, FigS5) (Repeat 3, Conc. 0.781 μM): 89.3
mean (FP signal, FigS5) (Repeat 3, Conc. 1.563 μM): 75.7
mean (FP signal, FigS5) (Repeat 3, Conc. 3.125 μM): 70.7
mean (FP signal, FigS5) (Repeat 3, Conc. 6.25 μM): 69
mean (FP signal, FigS5) (Repeat 3, Conc. 12.5 μM): 66.7
mean (FP signal, FigS5) (Repeat 3, Conc. 25 μM): 65
mean (FP signal, FigS5) (Repeat 3, Conc. 50 μM): 67
